Common to all, as to type: cell-based
One assay deals with T1, Adenosine 1 receptor (Homo sapiens, UniProt P30542).
T1 construct: expressed in transfected cells; host or cells: Chinese hamster ovary (CHO) cells, co-transfected with a CRE-SPAP reporter
T1 sequence (P30542 1-326): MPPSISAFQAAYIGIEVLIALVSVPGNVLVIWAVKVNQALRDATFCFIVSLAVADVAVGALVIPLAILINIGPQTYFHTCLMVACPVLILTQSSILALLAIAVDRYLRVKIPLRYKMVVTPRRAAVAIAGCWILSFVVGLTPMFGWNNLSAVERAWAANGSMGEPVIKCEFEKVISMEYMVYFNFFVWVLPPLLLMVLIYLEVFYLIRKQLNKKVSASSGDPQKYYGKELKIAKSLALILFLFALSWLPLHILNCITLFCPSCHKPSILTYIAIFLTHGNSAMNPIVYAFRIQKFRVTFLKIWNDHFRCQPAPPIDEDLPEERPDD
As to the kind of experiment: Agonist activity against adenosine 1 receptor subtype (CHO cells, forskolin-enhanced cAMP, SPAP reporter). Particulars: EC50 ratio to NECA; transfected CHO cells, forskolin-enhanced cAMP reflected by SPAP. Summed up: (§1)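 CHO cells expressed the human receptor plus a cAMP response element–driven SPAP reporter. Agonism was measured as SPAP change from forskolin-enhanced cAMP for A1 and A3, and from basal cAMP for A2a. EC50 is expressed as a ratio to that of NECA.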

The target of a further assay is T2, Adenosine 2a receptor (Homo sapiens, UniProt P29274).
T2 construct: expressed in transfected cells; host or cells: Chinese hamster ovary (CHO) cells, co-transfected with a CRE-SPAP reporter
T2 sequence (P29274 whole entry): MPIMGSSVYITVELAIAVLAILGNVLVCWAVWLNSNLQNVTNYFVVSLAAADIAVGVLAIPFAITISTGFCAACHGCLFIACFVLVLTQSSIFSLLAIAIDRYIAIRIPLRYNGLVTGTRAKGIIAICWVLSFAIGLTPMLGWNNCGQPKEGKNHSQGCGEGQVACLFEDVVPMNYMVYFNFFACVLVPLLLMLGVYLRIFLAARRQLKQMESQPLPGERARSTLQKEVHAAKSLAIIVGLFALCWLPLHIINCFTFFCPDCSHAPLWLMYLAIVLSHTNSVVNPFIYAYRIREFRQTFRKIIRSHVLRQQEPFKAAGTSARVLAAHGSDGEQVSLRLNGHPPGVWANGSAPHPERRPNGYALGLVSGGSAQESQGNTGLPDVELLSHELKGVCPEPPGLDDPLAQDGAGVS
The experiment in a line: Agonist activity against adenosine 2a receptor subtype (CHO cells, cAMP response element/SPAP reporter). Particulars: EC50 ratio to NECA; transfected CHO cells, basal cAMP reflected by SPAP. Summed up: as §1

The next assay has as its target T3, Adenosine 3 receptor (Homo sapiens, UniProt P0DMS8).
T3 construct: expressed in transfected cells; host or cells: Chinese hamster ovary (CHO) cells, co-transfected with a CRE-SPAP reporter
T3 sequence (P0DMS8 1-318): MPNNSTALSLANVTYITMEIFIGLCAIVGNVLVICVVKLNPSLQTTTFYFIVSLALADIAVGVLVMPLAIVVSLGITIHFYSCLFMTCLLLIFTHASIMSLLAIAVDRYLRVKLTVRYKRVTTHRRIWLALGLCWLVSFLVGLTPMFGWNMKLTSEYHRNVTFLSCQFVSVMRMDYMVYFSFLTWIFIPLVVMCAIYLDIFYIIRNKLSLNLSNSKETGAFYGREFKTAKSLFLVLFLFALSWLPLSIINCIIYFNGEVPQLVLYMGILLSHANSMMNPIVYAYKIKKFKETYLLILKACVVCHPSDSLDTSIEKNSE
As to the kind of experiment: Agonist activity against adenosine 3 receptor subtype (CHO cells, forskolin-enhanced cAMP, SPAP reporter). Particulars: EC50 ratio to NECA; transfected CHO cells, forskolin-enhanced cAMP reflected by SPAP. Summed up: as §1

Counter-ions that a name gives are not always drawn.

With `CCC(CC)Nc1nc(NCCc2cn(C)cn2)nc2c1ncn2C1OC(c2cc(C=NO)no2)C(O)C1O` (stereo not drawn) [Example 50, 5-(5R-{6-Ethyl-propylamino)-2-[2(1-methyl-1H-imidazol-4-yl)-ethylamino]-purin-9-yl}-3S,4R-dihydroxy-tetrahydro-furan-2S-yl)-isoxazole-3-carbaldehyde oxime diformate], on Adenosine 1 receptor, the “A1 (EC50 values as a ratio of that of NECA)” value is listed as over 6188. Moreover, the “A2a (EC50 values as a ratio of that of NECA)” value on Adenosine 2a receptor was 7.26. Moreover, the “A3 (EC50 values as a ratio of that of NECA)” value on Adenosine 3 receptor is on record as over 113.

Regarding `CCC(CC)Nc1nc(NCCN2CCCCC2)nc2c1ncn2[C@@H]1O[C@H](c2cc(C(C)O)no2)[C@@H](O)[C@H]1O.O=CO.O=CO` (stereo partly drawn) [Example 54, (2R,3R,4S,5S)-2-[6-(1-Ethyl-propylamino)-2-(2-piperidin-1-yl-ethylamino)-purin-9-yl]-5-[3-(1-hydroxy-ethyl)-isoxazol-5-yl]-tetrahydro-furan-3,4-diol diformate], the “A1 (EC50 values as a ratio of that of NECA)” value at Adenosine 1 receptor is 10.18. The “A2a (EC50 values as a ratio of that of NECA)” value at Adenosine 2a receptor came to 0.066. Moreover, on Adenosine 3 receptor, the “A3 (EC50 values as a ratio of that of NECA)” value is reported as over 350.

Consider `CCc1cc(C2OC(n3cnc4c(NCC(c5ccccc5)c5ccccc5)nc(NCCNC(=N)N)nc43)C(O)C2O)on1` (stereo not drawn) [Example 23, N-2-{6-(2,2-Diphenyl-ethylamino)-9-[5S-(3-ethyl-isoxazol-5-yl)-3R,4S-dihydroxy-tetrahydro-furan-2R-yl]-9H-purin-2-ylamino}-ethyl)-guanidine diformate], for which the “A1 (EC50 values as a ratio of that of NECA)” value at Adenosine 1 receptor is on record as “>=3263”. Also, on Adenosine 2a receptor, the “A2a (EC50 values as a ratio of that of NECA)” value came out at 13.4. Besides, the “A3 (EC50 values as a ratio of that of NECA)” value at Adenosine 3 receptor is recorded as over 282.

In the case of `CCc1cc([C@H]2O[C@@H](n3cnc4c(NC(CC)CC)nc(NC5CCOCC5)nc43)[C@H](O)[C@@H]2O)on1.O=CO` [Example 48, (2R,3R,4S,5S)-2-[2-(4-tetrahydropyranyl-amino)-6-(1-ethyl-propylamino)-purin-9-yl]-5-(3-ethyl-isoxazol-5-yl)-tetrahydro-furan-3,4-diol formate], the “A1 (EC50 values as a ratio of that of NECA)” value at Adenosine 1 receptor was determined as 177.71. The “A2a (EC50 values as a ratio of that of NECA)” value on Adenosine 2a receptor amounted to 11.48. Also, at Adenosine 3 receptor, the “A3 (EC50 values as a ratio of that of NECA)” value was over 363.

Consider `CCc1cc(C2OC(n3cnc4c(NC(CO)C(C)C)nc(NCCN5CCCCC5)nc43)C(O)C2O)on1` [Example 70, (2S,3S,4R,5R)-2-(3-Ethyl-isoxazol-5-yl)-5-[6-(1(1S-hydroxymethyl-2-methyl-propylamino)-2-(2-piperidin-1-yl-ethylamino)-purin-9-yl]-tetrahydro-furan-3,4-diol diformate], for which the “A1 (EC50 values as a ratio of that of NECA)” value at Adenosine 1 receptor amounted to 149.86. Also, the “A2a (EC50 values as a ratio of that of NECA)” value on Adenosine 2a receptor was 27.39. In addition, on Adenosine 3 receptor, the “A3 (EC50 values as a ratio of that of NECA)” value is listed as over 184.

As to `CCc1cc(C2OC(n3cnc4c(NC(CC)CC)nc(NC5CCNC5)nc43)C(O)C2O)on1` [Example 36, (2S,3S,4R,5R)-2-(3-Ethyl-isoxazol-5-yl)-5-[6-(1(-ethyl-propylamino)-2-(pyrrolidin-3R-ylamino)-purin-9-yl]-tetrahydro-furan-3,4-diol diformate], at Adenosine 1 receptor, the “A1 (EC50 values as a ratio of that of NECA)” value was 68.32. On Adenosine 2a receptor, the “A2a (EC50 values as a ratio of that of NECA)” value is on record as 4.7. The “A3 (EC50 values as a ratio of that of NECA)” value at Adenosine 3 receptor is over 207.

`CCc1cc(C2OC(n3cnc4c(NC5CCN(C(C)=O)CC5)nc(NC(CO)Cc5ccccc5)nc43)C(O)C2O)on1` (stereo not drawn) [Example 28, 1-{4-[9-[5S-(3-Ethyl-isoxazol-5-yl)-3R,4S-dihydroxy-tetrahydro-furan-2R-yl]-2-(1S-hydroxymethyl-2-phenyl-ethylamino)-9H-purin-6-ylamino]-piperidin-1-yl}-ethanone formate]: the “A1 (EC50 values as a ratio of that of NECA)” value at Adenosine 1 receptor came to 165.8. For the same molecule, the “A2a (EC50 values as a ratio of that of NECA)” value at Adenosine 2a receptor was 14.5. The “A3 (EC50 values as a ratio of that of NECA)” value on Adenosine 3 receptor is over 263.

Regarding `CCc1cc(C2OC(n3cnc4c(NC5CCS(=O)(=O)CC5)nc(NC5CCC(N)CC5)nc43)C(O)C2O)on1` [Example 32, (2R,3R,4S,5S)-2-[2-trans-4-Amino-cyclohexylamino)-6-(1-dioxo-hexahydro-1λ6-thiopyran-4-ylamino)-purin-9-yl]-5-(3-ethyl-isoxazol-5-yl)-tetrahydro-furan-3,4-diol diformate], the “A1 (EC50 values as a ratio of that of NECA)” value at Adenosine 1 receptor is 31.75. In addition, the “A2a (EC50 values as a ratio of that of NECA)” value at Adenosine 2a receptor is on record as 3.79. For the same molecule, the “A3 (EC50 values as a ratio of that of NECA)” value at Adenosine 3 receptor is reported as over 176.

For the molecule `CCCc1cc(C2OC(n3cnc4c(NC(CC)CC)nc(NCCN5CCCCC5)nc43)C(O)C2O)on1.O=CO.O=CO` [Example 56, (2R,3R,4S,5S)-2-[6-(1-Ethyl-propylamino)-2-(2-piperidin-yl-ethylamino)-purin-9-yl]-5-(3-propyl-isoxazol-5-yl)-tetrahydro-furan-3,4-diol diformate], on Adenosine 1 receptor, the “A1 (EC50 values as a ratio of that of NECA)” value is on record as 101.31. Moreover, at Adenosine 2a receptor, the “A2a (EC50 values as a ratio of that of NECA)” value is given as 5.19. The “A3 (EC50 values as a ratio of that of NECA)” value at Adenosine 3 receptor is listed as over 525.

`CCc1cc([C@H]2O[C@@H](n3cnc4c(NCCC(C)(C)C)nc(NCCN5CCCCC5)nc43)[C@H](O)[C@@H]2O)on1.O=CO.O=CO` [Example 41, (2R,3R,4S,5S)-2-[6-(3,3-Dimethyl-butylamino)-2-(2-piperidin-1-yl-ethylamino)-purin-9-yl]-5-(3-ethyl-isoxazol-5-yl)-tetrahydro-furan-3,4-diol diformate]: the “A1 (EC50 values as a ratio of that of NECA)” value at Adenosine 1 receptor was determined as 2907.96. The “A2a (EC50 values as a ratio of that of NECA)” value at Adenosine 2a receptor is listed as 27.39. Besides, at Adenosine 3 receptor, the “A3 (EC50 values as a ratio of that of NECA)” value was over 395.

Turning to `CCc1cc(C2OC(n3cnc4c(NC(CC)CC)nc(NCCc5ccccn5)nc43)C(O)C2O)on1` [Example 37, (2S,3S,4R,5R)-2-(3-Ethyl-isoxazol-5-yl)-5-[61-ethyl-propylamino)-2-(2-pyridin-2-yl-ethylamino)-purin-9-yl]-tetrahydro-furan-3,4-diol diformate], at Adenosine 1 receptor, the “A1 (EC50 values as a ratio of that of NECA)” value came to 136.56. Besides, the “A2a (EC50 values as a ratio of that of NECA)” value at Adenosine 2a receptor stood at 2.65. The “A3 (EC50 values as a ratio of that of NECA)” value at Adenosine 3 receptor is over 207.

As to `CCc1cc(C2OC(n3cnc4c(NCCc5ccccc5)nc(NCCN5CCCCC5)nc43)C(O)C2O)on1.O=CO.O=CO` [Example 3, (2R,3R,4S,5S)-2-(3-Ethyl-isoxazol-5-yl)-5-[6-phenethylamino-2-(2-piperidin-1-yl-ethylamino)-purin-9-yl]-tetrahydro-furan-3,4-diol diformate], the “A1 (EC50 values as a ratio of that of NECA)” value on Adenosine 1 receptor was determined as 231. The “A2a (EC50 values as a ratio of that of NECA)” value on Adenosine 2a receptor was determined as 1.32. The “A3 (EC50 values as a ratio of that of NECA)” value at Adenosine 3 receptor is over 375.

Turning to `CCOC(=O)c1cc(C2OC(n3cnc4c(NC(CC)CC)nc(NCCc5cn(C)cn5)nc43)C(O)C2O)on1` (stereo not drawn) [Example 68, 5-(5R-{6-(1-Ethyl-propylamino)-2-[2-(1-methyl-1H-imidazol-4-yl)-ethylamino]-purin-9-yl}-3S,4R-dihydroxy-tetrahydro-furan-2S-yl)-isoxazole-3-carboxylic acid ethyl ester diformate], the “A1 (EC50 values as a ratio of that of NECA)” value at Adenosine 1 receptor is 60.30. Besides, at Adenosine 2a receptor, the “A2a (EC50 values as a ratio of that of NECA)” value amounted to 30.23. The “A3 (EC50 values as a ratio of that of NECA)” value on Adenosine 3 receptor is given as over 113.

Consider `CCc1cc([C@H]2O[C@@H](n3cnc4c(NC(CC)CC)nc(NCCN5CCCCC5)nc43)[C@H](O)[C@@H]2O)on1.O=CO.O=CO` [Example 6, (2S,3S,4R,5R)-2-(3-Ethyl-isoxazol-5-yl)-5-[6-(1-ethyl-propylamino)-2-(2-piperidin-1-yl-ethylamino)-purin-9-yl]-tetrahydro-furan-3,4-diol diformate], for which, on Adenosine 1 receptor, the “A1 (EC50 values as a ratio of that of NECA)” value was found to be 66.4. In addition, the “A2a (EC50 values as a ratio of that of NECA)” value at Adenosine 2a receptor was found to be 0.49. Also, the “A3 (EC50 values as a ratio of that of NECA)” value at Adenosine 3 receptor is on record as over 393.

On to `CCc1cc(C2OC(n3cnc4c(NC5CCSCC5)nc(NCCNC(=N)N)nc43)C(O)C2O)on1` (stereo not drawn) [Example 9, N-{2-[9-[5S-(3-Ethyl-isoxazol-5-yl)-3R,4S-dihydroxy-tetrahydro-furan-2R-yl]-6-tetrahydro-thiopyran-4-ylamino)-9H-purin-2-ylamino]-ethyl}-guanidine diformate], for which the “A1 (EC50 values as a ratio of that of NECA)” value at Adenosine 1 receptor turned out to be 132.3. Besides, at Adenosine 2a receptor, the “A2a (EC50 values as a ratio of that of NECA)” value came to 2.05. Besides, on Adenosine 3 receptor, the “A3 (EC50 values as a ratio of that of NECA)” value is recorded as over 323.

On to `CCc1cc(C2OC(n3cnc4c(NC5CCOCC5)nc(NC(CO)Cc5ccccc5)nc43)C(O)C2O)on1` [Example 15, (2S,3S,4R,5R)-2-(3-Ethyl-isoxazol-5-yl)-5-[2-(1S-hydroxymethyl-2-phenyl-ethylamino)-6-(tetrahydro-pyran-4-ylamino)-purin-9yl]-tetrahydro-furan-3,4-diol formate], for which, on Adenosine 1 receptor, the “A1 (EC50 values as a ratio of that of NECA)” value is 26.05. Also, the “A2a (EC50 values as a ratio of that of NECA)” value at Adenosine 2a receptor turned out to be 3.66. Moreover, the “A3 (EC50 values as a ratio of that of NECA)” value on Adenosine 3 receptor is on record as over 146.

(Values after patent US6762170B1, “2-(purin-9-yl)-tetrahydrofuran-3,4-diol derivatives” (SmithKlineBeecham Corporation, priority 1998, dated 2004).)
